The nature of this series: solubility of the azo compound (to water). In kind it is physicochemical. From the text: The azo compound of the present invention can be used directly or in formulation with an appropriate carrier or the like, as a colorant for various kinds of articles. […] Said water-based composition is useful as a colorant for various kinds of articles. For example, said water-based composition can dye a material composed of cellulose. In addition, it can dye other materials having carbonamide bonds and widely used for dyeing of leather, textile and paper. Meanwhile, a typical use of the compound of the present invention includes an ink composition prepared by dissolving it in a liquid medium.

This is an account of results in patent US20090118479A1, “Azo compound, ink composition, recording method and colored article” (priority 2005, published 2009).

As a reminder, the solubility is how much of the substance goes into solution per volume. Read a low solubility as little dissolved substance.

`Nc1c(N=Nc2ccc3c(O)c(N=Nc4ccc5c(O)c(N=Nc6ccc(N=Nc7ccc(S(=O)(=O)O)cc7)cc6S(=O)(=O)O)c(S(=O)(=O)O)cc5c4S(=O)(=O)O)c(S(=O)(=O)O)cc3c2S(=O)(=O)O)cc(S(=O)(=O)O)c2cc(S(=O)(=O)O)c(N=Nc3ccc(S(=O)(=O)O)cc3[N+](=O)[O-])c(O)c12` [compound No. 2] came in with a solubility of no less than 100 mg/mL.

The molecule `Cc1cc(N=Nc2c(S(=O)(=O)O)cc3c(S(=O)(=O)O)c(N=Nc4c(S(=O)(=O)O)cc5c(S(=O)(=O)O)c(N=Nc6cc(S(=O)(=O)O)c7cc(S(=O)(=O)O)c(N=Nc8ccc([N+](=O)[O-])cc8S(=O)(=O)O)c(O)c7c6N)ccc5c4O)ccc3c2O)c(OCCCS(=O)(=O)O)cc1N=Nc1cc(S(=O)(=O)O)cc2cc(S(=O)(=O)O)cc(O)c12` [compound No. 13] showed a solubility of no less than 100 mg/mL.
